Laboratory results: patent US4703061A, “Gamma-aminobutyric acid derivatives, process for production thereof, and use thereof as medicaments” (priority 1984, dated 1987)
Counter-ions that a name gives are not always drawn.

How the values were obtained:
[1] = tested on: sleeping induced by pentobarbital; assay: Effect of prolonging the time of sleeping induced by pentobarbital; assay type: in vivo, ddY-strain male mice; conditions: pentobarbital sodium 50 mg/kg s.c.
Experimental: In Tests 1 to 4 given below, ddY-strain male mice (body weight 20-25 g) were used, and the experiments were carried out in a semi-soundproof, constant-temperature room kept at a temperature of 23±1° C. and a humidity of 55±2%. The mice were allowed to take feed and water freely.
Test 3: Effect of prolonging the time of sleeping induced by pentobarbital
The effects of the test compounds on sleeping induced by pentobarbital were examined. The disappearance of righting reflex for 5 seconds or more was used as an index of sleeping. Mice were divided into 10-membered groups. Each of the test compounds was intraperitoneally administered to the mice in the doses indicated. Immediately then, pentobarbital sodium salt was subcutaneously injected into the mice in a dose of 50 mg/kg, and the sleeping time was compared with that of a group to which pentobarbital alone was injected (control).

in vivo = conditions: mouse, in vivo, ip
Experimental: Calcium 4-(3,5-dihydroxy-3-methylpentylamide) butyrate was intraperitoneally administered in doses of 500 mg/kg and 1,000 mg/kg respectively to eight ddY-strain male mice (body weight 20 to 25 g).

[2] = tested on: electric convulsive shock-induced amnesia model; assay: Effects on ECS-induced amnesia (step-down retention test); assay type: in vivo, ddY-strain male mice; conditions: for Escape learning latency (mean ± S.E.) / Step-down latency (mean ± S.E.): ECS 300 V, retention test 24 hours
Experimental: The test animals used were ddY-strain male mice (body weight 30-35 g). The experiment was carried out indoors at about 20° C., and the mice were allowed to take feed and water freely. 2. Effects on memorized behaviors A device comprised of a floor grid surrounded on four sides by acrylic glass walls each having a lateral dimension of 21 cm and a wooden platform, 4×4×4 cm in size, fixed centrally to the floor grid was placed in a wooden semi-soundproof box having a size of 21×21×40 cm with a […] electric bulb suspended from its ceiling. The floor grid consisted of stainless steel rods, 3 mm in diameter, arranged at intervals of 8 mm. An intermittent electric shock (1 Hz, 0.5 sec., 60 V DC) was applied to the grid by an electric impulse apparatus and an isolator. A mouse was placed in a predetermined direction on the platform. Immediately after the mouse stepped down onto the floor grid (when the mouse's four limbs left the platform), an electric shock was applied to the floor grid, and the intermittent application of the electric shock was continued until the mouse climbed up the platform to escape from the electric shock. The time which elapsed until the mouse stepped down from the platform (SDL, step down latency) and the time which elapsed until the mouse escaped to the platform from the electric shock (ELL, escape learning latency) were measured. […] By the same procedure as in the training test, a mouse was placed on the platform, and its step down latency (SDL) was measured. The cut-off time was 300 seconds. After the mouse stepped down, or the cut-off time elapsed, the mouse was placed on the floor grid at a corner of the device with its head directed in a direction opposite to the platform. An electric shock was applied to the mouse and its escape learning latency (ELL) was measured. Mice divided into groups each consisting of not less than 15 mice were subjected to the training test, and immediately then, ECS (300 V DC, 0.5 sec.) was applied to the mice through both ears. Twenty-four hours later, the mice were subjected to the retention test. Immediately after administration of CXM or application of ECS, a 0.9% normal saline solution of each of the test compounds was intraperitoneally administered to the mice. Separately, a 5% gum arabic solution of CXM was administered to the mice in a control group. […] But the mice recovered 1 to 2 minutes later.

CC(O)(CCO)CC(=O)NCCCC(=O)O (centres unmarked) [MV-GABA-Ca salt, calcium 4-(3,5-dihydroxy-3-methylpentylamide) butyrate]
Sleeping time ([1]; 1000 mg/kg i.p.): 62.7 ± 7.5 min
Sleeping time ([1]; 2000 mg/kg i.p.): 77.2 ± 5.2 min
LD50 (in vivo): > 2000 mg/kg
Escape learning latency (mean ± S.E.) ([2]; 250 mg/kg i.p.): 12.8 ± 1.6 s
Step-down latency (mean ± S.E.) ([2]; 250 mg/kg i.p.): 104.6 ± 17.7 s
Escape learning latency (mean ± S.E.) ([2]; 500 mg/kg i.p.): 8.0 ± 1.1 s
Step-down latency (mean ± S.E.) ([2]; 500 mg/kg i.p.): 158.5 ± 21.7 s
prolongation of ELL (ECS) ([2]; 500 mg/kg, result in words): significantly improved the prolongation of ELL
Escape learning latency (mean ± S.E.) ([2]; 750 mg/kg i.p.): 6.7 ± 0.7 s
Step-down latency (mean ± S.E.) ([2]; 750 mg/kg i.p.): 215.2 ± 15.9 s
shortening of SDL and prolongation of ELL (ECS) ([2]; 750 mg/kg, result in words): significantly improved shortening of SDL and also the prolongation of ELL
